Consider 32 sequences from the supplement of paper PMC11208160.
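Note: IS621 recombinase and bridge RNA in Escherichia coli cells.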

The data set can be described thus: recombinant barcode read abundance after kanamycin selection (control-corrected) (log10(CPM+1)); higher = more efficient recombination; sequences stand for … in AGTGCAGAGAAAATCGGCCAGTTTTCTCTGCCTGCAGTCCGCATGCCGT…AGATTTATGCAGCGGACTGCCTTTCTCCCAAAGTGATAAACCGGACAGTATCATGGACCGGTTTTCCCGGTAATCCGTATTTGCAAGGTTGGTTTCACT; site = the 11-nt target. In a few lines: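 Recombination efficiency comes from barcode counts at recombinant junctions, converted to counts per million, averaged and corrected against the control. Values appear as log10(CPM+1). They were obtained from a pooled E. coli screen in which each oligo paired a target with an IS621 bridge RNA target-binding loop, and cells were plated in duplicate on chloramphenicol/ampicillin LB agar or on chloramphenicol/ampicillin/kanamycin with 0.1 mM IPTG.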
Turning to “GTACAAGCTTGGGTTCTAACCTGTTGCCT (site AGGAGTCCTCT)”, the “recombinant barcode read abundance (log10)” value was 0.102.
As for “GTACAAGCTTGGGTTCTAACCTGTTGCCT (site GTACAAGCTAG)”, the figure is 1.08; as for “GTACCGCCTTGGGTTCTAACCTGTTGCCT (site GTACAGCCTAG)”, 0.483; as for “GTACCGCCTTGGGTTCTAACCTGTTGCCT (site GTACCGCCTAG)”, 1.01.
Consider “GTACCGCCTTGGGTTCTAACCTGTTGCCT (site GTACGGCCTAG)”, for which the “recombinant barcode read abundance (log10)” value was 0.122.
As for “GTACCGCCTTGGGTTCTAACCTGTTGCCT (site GTACTGCCTAG)”, the “recombinant barcode read abundance (log10)” value amounted to 0.29.
For “GTACCTTCTTGGGTTCTAACCTGTTGCCT (site GGAGCTTCTAG)”, the “recombinant barcode read abundance (log10)” value was determined as 0.0858.
To “GTACCTTCTTGGGTTCTAACCTGTTGCCT (site GTACCTTCTAG)” belongs 1.08; to “GTACGATCTTGGGTTCTAACCTGTTGCAA (site GTACGATCTTT)”, 0.962.
As for “GTACGATCTTGGGTTCTAACCTGTTGCAA (site GTACGGTCTAT)”, the figure is 0.291; as for “GTACGATCTTGGGTTCTAACCTGTTGCGG (site CCTTCTCCTAT)”, 0.0115; as for “GTACGATCTTGGGTTCTAACCTGTTGCGG (site GTACGATCTCC)”, 0.753.
As for “GTACGGCCTTGGGTTCTAACCTGTTGCCT (site GTACAGCCTAG)”, the figure is 0.453.
For “GTACGGCCTTGGGTTCTAACCTGTTGCCT (site GTACCGCCTAG)”, the “recombinant barcode read abundance (log10)” value is 0.0984.
To “GTACGGCCTTGGGTTCTAACCTGTTGCCT (site GTACGGCCTAG)” belongs 0.319; to “GTACGGCCTTGGGTTCTAACCTGTTGCCT (site GTACTGCCTAG)”, 0.0887.
To “GTACTCTCTTGGGTTCTAACCTGTTGCCA (site GAACTGTCTTG)” belongs 0.143.
To “GTACTCTCTTGGGTTCTAACCTGTTGCCA (site GTACTCTCTTG)” belongs 1.38.
Regarding “GTAGCACCTTGGGTTCTAACCTGTTGCTT (site GTAGCACCTAA)”, the “recombinant barcode read abundance (log10)” value was 1.72.
As for “GTAGCACCTTGGGTTCTAACCTGTTGCTT (site GTATGACCTAA)”, the figure is 0.323; as for “GTAGGTCCTTGGGTTCTAACCTGTTGCCG (site GTAGGTCCTCG)”, 2.48.
In the case of “GTAGGTCCTTGGGTTCTAACCTGTTGCCG (site TACAACACTAC)”, the “recombinant barcode read abundance (log10)” value turned out to be 0.0369.
Regarding “GTAGTAACTTGGGTTCTAACCTGTTGCCT (site GTAGTAACTAG)”, the “recombinant barcode read abundance (log10)” value came out at 2.12.
To “GTAGTAACTTGGGTTCTAACCTGTTGCCT (site GTAGTACCTAG)” belongs 0.104; to “GTAGTAACTTGGGTTCTAACCTGTTGCCT (site GTAGTAGCTAG)”, 0.206; to “GTAGTAACTTGGGTTCTAACCTGTTGCCT (site GTAGTATCTAG)”, 0.0374.
For “GTAGTTCCTTGGGTTCTAACCTGTTGCCT (site GTAGTTCCTAG)”, the “recombinant barcode read abundance (log10)” value was found to be 1.6.
On to “GTAGTTCCTTGGGTTCTAACCTGTTGCCT (site GTCGTTCCTAG)”, for which the “recombinant barcode read abundance (log10)” value amounted to 0.0557.
As for “GTATACCCTTGGGTTCTAACCTGTTGCCA (site GTATACCCTAT)”, the figure is 0.498; as for “GTATACCCTTGGGTTCTAACCTGTTGCCA (site GTATACCCTTG)”, 1.27.
Turning to “GTATATACTTGGGTTCTAACCTGTTGCCT (site GTATATACTAG)”, the “recombinant barcode read abundance (log10)” value worked out at 0.902.
“GTATATACTTGGGTTCTAACCTGTTGCCT (site GTCTATACTAG)”: the “recombinant barcode read abundance (log10)” value was 0.112.
